Key:
[1] = biological target: GSK3β (Homo sapiens (Human), UniProt P49841); test: GSK3β kinase assay (Caliper LabChip, fluoresceinated peptide substrate); type: biochemical; settings: 250 pM enzyme, 20 uM ATP, 1.5 uM peptide, 20 hours room temperature; read-out: GSK3β IC50 (first value of GSK3β/GSK3α)
Description: The kinase assay was performed in V-bottom 384-well plates. […] The reaction was incubated at room temperature for 20 hours and terminated by adding 45 μl of 35 mM EDTA to each sample. The reaction mixture was analyzed on the Caliper LabChip3000 (Caliper, Hopkinton, Mass.) by electrophoretic separation of the unphosphorylated substrate and phosphorylated product. […] Compounds were dissolved at 10 mM in dimethylsulfoxide (DMSO) and evaluated at eleven concentrations. IC50 values were derived by non-linear regression analysis.

[2] = biological target: GSK3α (Homo sapiens (Human), UniProt P49840); test: GSK3α kinase assay (Caliper LabChip, fluoresceinated peptide substrate); type: biochemical; settings: 250 pM enzyme, 20 uM ATP, 1.5 uM peptide, 20 hours room temperature; read-out: GSK3α IC50 (second value of GSK3β/GSK3α)
Description: IC50 values were derived by non-linear regression analysis.

[3] = system: pTau; test: pTau assay; type: cell-based

Sequence of GSK3β (P49841 whole entry, species assumed): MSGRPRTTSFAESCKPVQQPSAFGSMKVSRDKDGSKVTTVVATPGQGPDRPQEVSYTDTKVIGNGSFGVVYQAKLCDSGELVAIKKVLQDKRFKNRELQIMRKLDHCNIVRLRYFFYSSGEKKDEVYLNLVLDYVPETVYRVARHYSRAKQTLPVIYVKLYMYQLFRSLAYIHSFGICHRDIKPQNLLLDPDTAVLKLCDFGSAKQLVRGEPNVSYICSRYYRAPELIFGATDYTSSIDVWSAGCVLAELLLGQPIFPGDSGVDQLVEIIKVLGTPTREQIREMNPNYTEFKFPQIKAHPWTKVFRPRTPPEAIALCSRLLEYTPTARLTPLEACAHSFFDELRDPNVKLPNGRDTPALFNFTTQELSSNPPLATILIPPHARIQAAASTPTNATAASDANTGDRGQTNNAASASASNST
Sequence of GSK3α (P49840 whole entry, species assumed): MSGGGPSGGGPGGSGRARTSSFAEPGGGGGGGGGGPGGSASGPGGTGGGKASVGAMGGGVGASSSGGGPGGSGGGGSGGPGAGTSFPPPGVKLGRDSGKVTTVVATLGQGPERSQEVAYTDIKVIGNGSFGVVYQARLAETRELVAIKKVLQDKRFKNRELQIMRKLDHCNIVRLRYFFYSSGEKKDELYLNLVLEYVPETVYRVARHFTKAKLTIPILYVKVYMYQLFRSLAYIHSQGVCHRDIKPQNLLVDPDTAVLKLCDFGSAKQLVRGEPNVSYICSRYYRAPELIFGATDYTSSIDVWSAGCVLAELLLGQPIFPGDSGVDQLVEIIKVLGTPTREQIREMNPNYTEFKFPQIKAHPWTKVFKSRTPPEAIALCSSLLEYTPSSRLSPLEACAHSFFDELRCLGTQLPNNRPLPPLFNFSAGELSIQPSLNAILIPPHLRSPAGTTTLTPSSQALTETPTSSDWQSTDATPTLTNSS

Row | Compound | IC50 [1] | IC50 [2] | IC50 [3]
1 | CC(C)Oc1ccncc1NC(=O)c1ccnn2c(NC(=O)C3CCC3)cnc12 [Example 47, 3-(Cyclobutanecarboxamido)-N-(4-isopropoxypyridin-3-yl)imidazo[1,2-b]pyridazine-8-carboxamide] | 140 nM | 110 nM | 6800 nM
2 | O=C(Nc1cnccc1N1CCCCC1)c1ccnn2ccnc12 [Example 27, N-(4-(Piperidin-1-yl)pyridin-3-yl)imidazo[1,2-b]pyridazine-8-carboxamide] | 19.8 nM | 11.4 nM | 760 nM
3 | CS(=O)(=O)c1ccncc1NC(=O)c1ccnn2cc(-c3ccccc3)nc12 [Example 5, N-(4-(Methylsulfonyl)pyridin-3-yl)-2-phenylimidazo[1,2-b]pyridazine-8-carboxamide] | 1.5 nM | 0.4 nM | 120 nM
4 | CC1CN(c2ccncc2NC(=O)c2ccnn3cc(-c4ccc(C(F)(F)F)cc4)nc23)CCO1 (centres unmarked) [Example 26, N-(4-(2-Methylmorpholino)pyridin-3-yl)-2-(4-(trifluoromethyl)phenyl)imidazo[1,2-b]pyridazine-8-carboxamide] | 1.4 nM | 0.6 nM | 120 nM
5 | O=C(Nc1cnccc1-c1ccc(F)cc1)c1ccnn2cc(C3=CCCCC3)nc12 [Example 33, 2-(Cyclohex-1-en-1-yl)-N-(4-(4-fluorophenyl)pyridin-3-yl)imidazo[1,2-b]pyridazine-8-carboxamide] | 6.1 nM | 1.2 nM | 820 nM
6 | O=C(Nc1cnccc1-c1ccccc1)c1ccnn2cc(-c3ccccc3)nc12 [Example 6, 2-Phenyl-N-(4-phenylpyridin-3-yl)imidazo[1,2-b]pyridazine-8-carboxamide] | 3.6 nM | 1.1 nM | 900 nM
7 | CC1CN(c2ccncc2NC(=O)c2ccnn3cc(C4CC4)nc23)CCO1 (centres unmarked) [Example 32, 2-Cyclopropyl-N-(4-(2-methylmorpholino)pyridin-3-yl)imidazo[1,2-b]pyridazine-8-carboxamide] | 2.6 nM | 0.8 nM | 60 nM
8 | O=C(Nc1cnccc1N1CCOCC1)c1ccnn2c(NCC3CC3)cnc12 [Example 44, 3-((Cyclopropylmethyl)amino)-N-(4-morpholinopyridin-3-yl)imidazo[1,2-b]pyridazine-8-carboxamide] | 9 nM | 1.4 nM | 65 nM
9 | CC1CN(c2ccncc2NC(=O)c2ccnn3ccnc23)CCO1 (centres unmarked) [Example 29, N-(4-(2-Methylmorpholino)pyridin-3-yl)imidazo[1,2-b]pyridazine-8-carboxamide] | 3.8 nM | 3.2 nM | 250 nM
10 | C[C@@H]1COCCN1c1ccncc1NC(=O)c1ccnn2cc(-c3ccccc3)nc12 [Example 17, (R)—N-(4-(3-Methylmorpholino)pyridin-3-yl)-2-phenylimidazo[1,2-b]pyridazine-8-carboxamide] | 3.4 nM | 1 nM | 180 nM
11 | Cc1ccncc1NC(=O)c1ccnn2cc(-c3ccccc3)nc12 [Example 2, N-(4-Methylpyridin-3-yl)-2-phenylimidazo[1,2-b]pyridazine-8-carboxamide] | 3.5 nM | 0.8 nM | 250 nM
12 | O=C(Nc1cccnc1)c1ccnn2cc(-c3ccccc3)nc12 [Example 1, 2-Phenyl-N-(pyridin-3-yl)imidazo[1,2-b]pyridazine-8-carboxamide] | – | – | 660 nM
13 | CC(C)Oc1ccncc1NC(=O)c1ccnn2c(NCC3CC3)cnc12 [Example 41, 3-((Cyclopropylmethyl)amino)-N-(4-isopropoxypyridin-3-yl)imidazo[1,2-b]pyridazine-8-carboxamide] | 6.6 nM | 3.4 nM | 290 nM
14 | CC1CN(c2ccncc2NC(=O)c2ccnn3c(NCC4CC4)cnc23)CCO1 (centres unmarked) [Example 45, 3-((Cyclopropylmethyl)amino)-N-(4-(2-methylmorpholino)pyridin-3-yl)imidazo[1,2-b]pyridazine-8-carboxamide] | 5.2 nM | 1.6 nM | 140 nM
15 | O=C(Nc1cnc(F)cc1N1CCC(F)(F)CC1)c1ccnn2cc(-c3ccccc3)nc12 [Example 20, N-(4-(4,4-Difluoropiperidin-1-yl)-6-fluoropyridin-3-yl)-2-phenylimidazo[1,2-b]pyridazine-8-carboxamide] | 2.3 nM | 0.6 nM | 160 nM
16 | Cc1ccncc1NC(=O)c1ccnn2c(NCC3CC3)cnc12 [Example 40, 3-((Cyclopropylmethyl)amino)-N-(4-methylpyridin-3-yl)imidazo[1,2-b]pyridazine-8-carboxamide] | 63 nM | 30 nM | 3900 nM
17 | O=C(Nc1cnccc1-c1ccc(F)cc1)c1ccnn2cc(-c3ccccc3)nc12 [Example 7, N-(4-(4-Fluorophenyl)pyridin-3-yl)-2-phenylimidazo[1,2-b]pyridazine-8-carboxamide] | 1.6 nM | 0.6 nM | –
18 | COc1cncc(NC(=O)c2ccnn3cc(-c4ccccc4)nc23)c1 [Example 19, N-(5-Methoxypyridin-3-yl)-2-phenylimidazo[1,2-b]pyridazine-8-carboxamide] | 37 nM | – | 3200 nM

Next, values leading:

Row | IC50 [1] | IC50 [2] | IC50 [3] | Compound
19 | 0.4 nM | 0.2 nM | 30 nM | O=C(Nc1cnccc1N1CCC(F)(F)CC1)c1ccnn2cc(-c3ccccc3)nc12 [Example 12, N-(4-(4,4-Difluoropiperidin-1-yl)pyridin-3-yl)-2-phenylimidazo[1,2-b]pyridazine-8-carboxamide]
20 | 0.3 nM | 0.2 nM | 24 nM | O=C(Nc1cnccc1N1CCC(F)CC1)c1ccnn2cc(-c3ccccc3)nc12 [Example 11, N-(4-(4-Fluoropiperidin-1-yl)pyridin-3-yl)-2-phenylimidazo[1,2-b]pyridazine-8-carboxamide]
21 | 0.8 nM | 0.2 nM | 49 nM | O=C(Nc1cnccc1N1CCOCC1)c1ccnn2cc(-c3ccc(C(F)(F)F)cc3)nc12 [Example 25, N-(4-Morpholinopyridin-3-yl)-2-(4-(trifluoromethyl)phenyl)imidazo[1,2-b]pyridazine-8-carboxamide]
22 | 0.4 nM | 0.1 nM | 28 nM | O=C(Nc1cnccc1N1CCC(F)(F)CC1)c1ccnn2cc(C3=CCCCC3)nc12 [Example 34, 2-(Cyclohex-1-en-1-yl)-N-(4-(4,4-difluoropiperidin-1-yl)pyridin-3-yl)imidazo[1,2-b]pyridazine-8-carboxamide]
23 | 0.75 nM | 0.4 nM | 58 nM | CC1CN(c2ccncc2NC(=O)c2ccnn3cc(-c4ccccc4)nc23)CCO1 (racemic) [Example 14, N-(4-(2-Methylmorpholino)pyridin-3-yl)-2-phenylimidazo[1,2-b]pyridazine-8-carboxamide]
24 | 0.3 nM | 0.1 nM | 22 nM | O=C(Nc1cnccc1OCC(F)(F)F)c1ccnn2cc(-c3ccccc3)nc12 [Example 4, 2-Phenyl-N-(4-(2,2,2-trifluoroethoxy)pyridin-3-yl)imidazo[1,2-b]pyridazine-8-carboxamide]
25 | 0.2 nM | 0.09 nM | 9.2 nM | CC1CN(c2ccncc2NC(=O)c2ccnn3cc(-c4ccccc4)nc23)CCO1 (single isomer, unassigned) [Example 15, N-(4-(2-Methylmorpholino)pyridin-3-yl)-2-phenylimidazo[1,2-b]pyridazine-8-carboxamide]
26 | 0.8 nM | 0.3 nM | 86 nM | CC1CN(c2ccncc2NC(=O)c2ccnn3cc(-c4ccccc4)nc23)CCO1 (single isomer, unassigned) [Example 16, N-(4-(2-Methylmorpholino)pyridin-3-yl)-2-phenylimidazo[1,2-b]pyridazine-8-carboxamide]
27 | 1.1 nM | 0.2 nM | – | O=C(Nc1cnccc1N1CCCCC1)c1ccnn2cc(-c3ccccc3)nc12 [Example 9, 2-Phenyl-N-(4-(piperidin-1-yl)pyridin-3-yl)imidazo[1,2-b]pyridazine-8-carboxamide]
28 | 0.7 nM | 0.4 nM | 83 nM | CC(C)Oc1ccncc1NC(=O)c1ccnn2cc(-c3ccccc3)nc12 [Example 3, N-(4-Isopropoxypyridin-3-yl)-2-phenylimidazo[1,2-b]pyridazine-8-carboxamide]
29 | 1.1 nM | 2 nM | 41 nM | O=C(Nc1cnccc1N1CCC(F)(F)CC1)c1ccnn2c(NCC3CC3)cnc12 [Example 43, 3-((Cyclopropylmethyl)amino)-N-(4-(4,4-difluoropiperidin-1-yl)pyridin-3-yl)imidazo[1,2-b]pyridazine-8-carboxamide]
30 | 0.4 nM | 0.2 nM | 120 nM | O=C(Nc1cnccc1N1CCC(F)(F)CC1)c1ccnn2cc(C3CC3)nc12 [Example 31, 2-Cyclopropyl-N-(4-(4,4-difluoropiperidin-1-yl)pyridin-3-yl)imidazo[1,2-b]pyridazine-8-carboxamide]
31 | 0.4 nM | 0.2 nM | 36 nM | O=C(Nc1cnccc1N1CCOCC1)c1ccnn2cc(-c3ccccc3)nc12 [Example 13, N-(4-Morpholinopyridin-3-yl)-2-phenylimidazo[1,2-b]pyridazine-8-carboxamide]
32 | 0.2 nM | 0.1 nM | – | N#CC1CCN(c2ccncc2NC(=O)c2ccnn3cc(-c4ccccc4)nc23)CC1 [Example 10, N-(4-(4-Cyanopiperidin-1-yl)pyridin-3-yl)-2-phenylimidazo[1,2-b]pyridazine-8-carboxamide]
33 | 1.3 nM | 0.4 nM | – | O=C(Nc1cnccc1N1CCOCC1)c1ccnn2cc(-c3cccnc3)nc12 [Example 36, N-(4-Morpholinopyridin-3-yl)-2-(pyridin-3-yl)imidazo[1,2-b]pyridazine-8-carboxamide]

From US10774086B2, “GSK-3 inhibitors” (BRISTOL-MYERS SQUIBB COMPANY, priority 2016, dated 2020)
